Entries after “also recorded” stand apart in the source; their conditions may differ. Where two headings read alike, the source gives them in different places.
What was measured:
[1] = tested on: glioma/GBM cell lines LN229, T98G, U87, U138, U373; assay: Pharmacodynamic analysis (alamarBlue dose-response, IC50); type: cell-based, human; conditions: defined media (dm) conditions
Method: (§1) For pharmacodynamic analysis, 5×10^4 cells were plated in 12-well-plates at 24 hours before application of compound-series and compound combinations, respectively. alamarBlue®-based analysis was conducted at 3-5 days post treatment. Experiments were performed in triplicates. IMC50 was defined as the compound concentration that reduced the metabolic activity by 50% compared to control conditions and determined via data analysis in GraphPad Prism 4.0.

21 pGBMs = assay: as above; type: cell-based; conditions: Homo sapiens, 120 h
Method: as §1

[2] = tested on: pGBM #GNV019 grafts in Scid Beige mice; assay: Orthotopic tumor xenograft of pre-treated cells; type: in vivo; conditions: niclosamide pre-treated #GNV019 cells, single exposure, n=6
[3] = tested on: hnNCs co-cultured with pGBMs; assay: Co-culture of pGBMs and hnNCs; type: cell-based, human; conditions: dm conditions, niclosamide 1 μM
[4] = tested on: phospho-β-catenin (Ser552); assay: Immunofluorescence of nuclear phospho-β-catenin (Ser552); type: cell-based, human; conditions: pGBMs
Source text: (§2) It is known that a circumscribed number of transcription factors and associated signaling pathways are overactive in human cancer cells (21). […] Characteristic for the active state of this mechanism, known to play an important role for tumor invasion, is an enhanced nuclear accumulation of β-catenin, phosphorylated at Ser^552 (26).

pGBMs [5] = assay: Proliferation kinetics / long-term cell growth (CellaVista); type: cell-based, human
[6] = tested on: #155 non-malignant primary adult human neural progenitor cells (AHNPs); assay: Primary drug screening, alamarBlue metabolic activity; type: cell-based; conditions: control cells 155; 1 µM niclosamide for 5 days, triplicate
Method: (§3) The tested compounds were supplied to cells proliferating in a linear-exponential phase. For all used cell samples, respective titration experiments were conducted before analysis. 24 hours after seeding 2-3×10^3 cells/well into laminin/poly-L-ornithine coated 96-well plates, cells were treated with 1 μM of each compound (stock solution 10 mM in DMSO). Control cells were treated with 0.01-0.1% DMSO. Five days after application, metabolic activity as a measure of cell viability was determined using the alamarBlue® assay according to the manufacturers recommendations (Life Technologies). Fluorescence was measured using an Infinite200 microplate reader (Tecan) at λex=540 nm and λem=590 nm. Experiments were performed in triplicates for each sample.
A library comprising of 160 synthetic and natural toxic substances was used for the screening approach. Four pGBMs, previously shown to maintain patient- and GBM-specific signatures and to contain sub-populations of tumor cells with and without stem cell qualities served as a discovery platform (#'s 023, 035, 046, 106; see (10)). Primary screening was conducted based on the alamarBlue® assay determining the metabolic activity as a measure for cellular viability at day 5 following single application of the library's compounds. […]

[7] = tested on: self-renewing, multipotent cells among pGBMs; assay: Neurosphere assay; type: cell-based, human; conditions: single application 1.5 μM, vital cells collected at day 5
[8] = tested on: non-malignant human cell sample #155; assay: Annexin V/Hoechst FACS analysis; type: cell-based; conditions: 5 days after application
Method: (B) CYCLIN D1 (CCND1)-western blot of cell extracts derived at this time point. […] Inset: mean data (n=5 pGBMs; **p<0.01). […] Right inset: representative scatter plots (#046). […] The graph exemplifies the time course of scratch closure for case #046 (mean±SD; triplicate analysis).
1×10^5 cells were collected at 5 days following compound application, settled by centrifugation, re-suspended in 100 μl AnnexinV buffer and incubated with 5 μl Annexin V-FITC for 1 hour at room temperature. To distinguish between living and dead cells, labeling with 1.2 μg/ml Hoechst 33258 was used Annexin V presence was determined using standard conditions in a LSRII equipped with FACSDiva Software (BD Bioscience). 2×10^4 cells were counted per measurement. The term ‘avital cells’ was used for Annexin V^+−, Annexin V^+/H33258^+, and H33258^+ cells.

[9] = tested on: Notch pathway (cleaved Notch 1-protein); assay: Western blot of cleaved Notch 1; type: cell-based, human; conditions: day 5 after single-dose exposure, 4 pGBMs
Method: (§4) Cell extracts were prepared at 24 to 144 hours following compound application and processed as described (49). Blot membranes were incubated overnight at 4° C. with antibodies against Cyclin-D1 (1:1000; BD Pharmingen), cleaved-Notch1 (1:1000), or phospho-S6 protein (1:1000; all Cell signaling) respectively. After washing, peroxidase-coupled secondary antibodies (Santa Cruz) were added for 1 hour. After washing, blots were developed using the ECL system (Millipore).
as §2

[10] = tested on: NF-κB-signaling (phospho-p65-NFκB protein); assay: Western blot of phospho-p65-NFκB (phospho-RELA); type: cell-based, human
U87 glioma cell line = assay: Primary drug screening, alamarBlue metabolic activity; type: cell-based, human; conditions: 1 µM niclosamide for 5 days, triplicate
Method: as §3
(§5) A library comprising of 160 synthetic and natural toxic substances was used for the screening approach. Four pGBMs, previously shown to maintain patient- and GBM-specific signatures and to contain sub-populations of tumor cells with and without stem cell qualities served as a discovery platform (#'s 023, 035, 046, 106; see (10)). Primary screening was conducted based on the alamarBlue® assay determining the metabolic activity as a measure for cellular viability at day 5 following single application of the library's compounds. In the experiments, every compound that reduced the mean metabolic activity of the 4 pGBMs below 50% of control levels was considered as a ‘hit’.

[11] = tested on: pGBMs (primary glioblastoma cells); assay: as above; type: cell-based, human; conditions: for Metabolic activity in % of the activity of a control without niclosamide: triplicate
Method: as §3, §5

[12] = tested on: pGBM #046 grafts in Rag2Il2rg−/− mice; assay: Orthotopic tumor xenograft of pre-treated cells; type: in vivo; conditions: niclosamide pre-treated #046 pGBMs, n=5
[13] = studies in animals; cited from earlier work
Cyclin D1 = assay: Western blot of Cyclin D1; type: cell-based, human; conditions: 24 hours post application
Method: as §4

pGBMs [14] = assay: Annexin V/Hoechst FACS analysis; type: cell-based, human; conditions: 5 days after application
WNT/CTNNB1 target genes = assay: qRT-PCR of β-catenin target genes; type: cell-based, human; conditions: pGBMs
Source text: as §2

pGBMs [15] = assay: Cell migration analysis (scratch assay); type: cell-based, human; conditions: sub-toxic concentrations, 125 nM
Method: 5×10^4 cells were plated into 12-well-plates coated with laminin/poly-L-ornithine. […] Three days after plating (at a cell density of 70%), a scratch/wound was inflicted with a sterile pipette tip. Thereafter, culture media was exchanged to remove non-adherent cells. The Plaque Assay application of the CellaVista® system (Roche Diagnostics) was used according to the manufacturer's instructions to monitor the scratch/wound size over time. Triplicate analysis data±SEM.

NFKBIA = assay: qRT-PCR of NFKBIA expression; type: cell-based, human; conditions: NFKBIA+/− pGBMs and standard GBM models under dm conditions
Source text: On the other hand, it is known that the inhibition of NF-κB alone may not severely affect most solid tumors, rather that it may help to prevent resistance of cancer cells to chemotherapy (30, 31).

[16] = tested on: non-malignant hnNCs (human non-malignant neural cells); assay: Pharmacodynamic analysis (alamarBlue dose-response); type: cell-based; conditions: three hnNCs, defined culture conditions
Method: as §1

[17] = tested on: mTOR signaling (phosphorylated S6-protein); assay: Western blot of phospho-S6 protein; type: cell-based, human; conditions: day 5 after single-dose exposure, 4 pGBMs
Method: as §4, §2

standard GBM cell lines = assay: Combinatorial pharmacodynamics niclosamide and TMZ (alamarBlue); type: cell-based; conditions: Homo sapiens; 50 μM TMZ alone, GBMs (standard cell lines); read-out: Metabolic activity, % of control levels
Method: as §1

pGBMs [18] = assay: as above; type: cell-based; conditions: Homo sapiens; 50 μM TMZ alone, pGBMs n=7, triplicate; read-out: Metabolic activity, % of control levels
Method: as §1

NFKBIA+/− pGBMs = assay: Control study with NFκB activator in combinatorial treatment; type: cell-based, human; conditions: NFKBIA+/− genotypes; niclo 1 μM, temozolomide 50 μM, TNF-a 50 ng/ml, 3 days
Method: FIG. 16: TNF-a antagonizes synergistic activity in NFKBIA+/− pGBMs. Graphs present data from combinatorial treatment paradigms in NFKBIA+/− (black) versus NFKBIA+/+ (gray) pGBMs at 3 days after compound application (niclo, 1 μM; temozolomide, 50 μM; TNF-a, 50 ng/ml). Insets, Western blot analyses of pREL A, indicating NF-kB pathway activity 24 hours after exposure to TNF-a, (Ta; 50 ng/ml) or 0.002% bovine serum albumin (C; control). ***p<0.001; **p<0.01; *p<0.05 (triplicates; mean±SD; one-way ANOVA and Tukey post hoc tests).

O=C(Nc1ccc([N+](=O)[O-])cc1Cl)c1cc(Cl)ccc1O [niclosamide]
Niclosamide effects on standard GBM model cell lines under dm conditions [1]: highly similar to findings obtained from pGBMs
IC50 (21 pGBMs; day 5, read-out: IC50 (50% reduction of relative metabolic activity), lower end of range over 21 pGBMs): ≥ 300 nM
IC50 (21 pGBMs; day 5, read-out: IC50 (50% reduction of relative metabolic activity), upper end of range over 21 pGBMs): ≤ 1200 nM
Tumor forming capacity of grafted cells [2]: no animal that received niclosamide pre-treated grafts showed evidence for tumor formation; also recorded: completely extinguished the tumor forming capacity
Sensitivity of hnNCs in co-culture with pGBMs [3]: lower sensitivity of hnNCs can be confirmed
Nuclear phospho-β-catenin (Ser552) antigen [4]: strong decrease
Delay of recovery of vital cells from cytostatic effects (long-term growth) (pGBMs [5]; single application 1.5 μM): 14 to 23 days
Growth delay (pGBMs [5]; single exposure, 1.5 μM, pGBMs 046, 078, 106): 5 days
Metabolic activity in % of the activity of a control without niclosamide [6]: 75.4%
Frequencies of self-renewing, multipotent (sphere-forming) cells [7]: reduced the frequencies of self-renewing, multipotent cells among pGBMs strongly
Pro-apoptotic effects in non-malignant cells [8]: lack of pro-apoptotic effects
Notch pathway activity (cleaved Notch 1-protein levels) [9]: concentration-dependent inhibition
NF-κB pathway (phospho-p65-NFκB protein levels) ([10]; pGBMs #046 and #078 (NFKBIA+/−) only, of four cases): pathway inhibition
Metabolic activity in % of the activity of a control without niclosamide (U87 glioma cell line): 66.5%
activity at 1 µM ([11]; Homo sapiens, 120 h, day 5 after single application, 1 μM of each compound, read-out: Mean metabolic activity of the 4 pGBMs, % of control levels ('hit' criterion)): < 50%
Metabolic activity in % of the activity of a control without niclosamide, pGBMs average ([11]; average of pGBMs 023, 035, 046, 106, 1 µM niclosamide for 5 days): 26.4%
Metabolic activity in % of the activity of a control without niclosamide ([11]; pGBM 023, 1 µM niclosamide for 5 days): 32.3%
Metabolic activity in % of the activity of a control without niclosamide ([11]; pGBM 035, 1 µM niclosamide for 5 days): 5.6%
Metabolic activity in % of the activity of a control without niclosamide ([11]; pGBM 046, 1 µM niclosamide for 5 days): 34.6%
Metabolic activity in % of the activity of a control without niclosamide ([11]; pGBM 106, 1 µM niclosamide for 5 days): 33.0%
Time after engraftment at which tumors developed / animals distressed ([12]; 10^6 cells into striatum): 153 ± 23 days
Animals with tumor development [12]: 4/5
Mutagenic, oncogenic, embryotoxic activity and cumulative effects [13]: no mutagenic, oncogenic, or embryotoxic activity and no cumulative effects
Cyclin D1 expression (Cyclin D1): strong decrease
Vital cells (pro-apoptotic effect) (pGBMs [14]): strong and pGBM-selective decrease of vital cells
Expression of β-catenin target genes (WNT/CTNNB1 target genes): significantly decreased
Effect on migration (scratch closure) (pGBMs [15]): anti-migratory effects
NFKBIA expression (NFKBIA): strongly up-regulate
Sensitivity of non-malignant hnNCs compared with pGBMs [16]: significantly lower level of sensitivity
Levels of phosphorylated S6-protein [17]: decrease in all samples

Cn1nnc2c(C(N)=O)ncn2c1=O [TMZ, temozolomide]
activity at 50 µM (standard GBM cell lines): 89 ± 8%
activity at 50 µM (pGBMs [18]): 94 ± 4%

TNFα
NFκB activity in pGBMs ([10]; TNF-a 50 ng/ml, 24 hours): activated NFκB
Effect on niclosamide/TMZ synergy (NFKBIA+/− pGBMs): counteracted synergy effects

— patent publication US9844522B2 (LIFE & BRAIN GMBH, priority 2012, dated 2017)
